The source of these data is US20220226342A1, “COMPOSITIONS AND METHODS OF TREATING LIVER CANCERS” (The Johns Hopkins University, priority 2019, published 2022).

The subject of test [1] is HCC patients. The following applies: clinical trial; cited from earlier work.
The test system of test [2] is HCC patients. Conditions: cited from earlier work.
The test system of the next test is 40 HCC PDO lines. As to the kind of experiment: 10 μM drug screening, cell viability at 96 h (CellTiter-Glo). Conditions: one HCC PDO line, 96 h. It is filed as cell-based, human. The method, then: FIG. 2A-2E. 10 μM drug screening and IC50 calculation across 40 PDOs from 20 HCC patients. (2A). 10 μM drug screening of omacetaxine and sorafenib, regorafenib, lenvatinib and cabozantinib on 40 PDOs derived from 20 HCC patients. X axis—the 40 PDO lines, Y axis—Cell viability. (2B). IC50 curve of 40 PDO lines, x-axis—omacetaxine dose, Y axis—Relative cell viability. (2C). […] (2D). IC50 distribution of 40 HCC PDOs. X axis—PDO lines, Y axis—IC50 number of omacetaxine for each PDO.
As readout of drug effectiveness, cell viability at 96 hours (h) was measured. White light microscopy images of one of the HCC PDO lines across 129 drugs was prepared. In FIG. 2E, each panel represents the image collected at 96 hours after treatment with each drug, at a concentration of 10 μM. […] To quantify survival, we implemented CellTiter-Glo, a luminescent cell viability assay. A total of 129 readings (one for each drug) was obtained for each of the 40 PDO lines, for a total of […] data points. […] Next, the inventors contrasted the survival of the […] HCC PDO lines when treated with omacetaxine versus current FDA approved drugs for HCC.
Background: ATP-based viability assays read luminescence as a measure of living cells.

Turning to `COc1cc2nccc(Oc3ccc(NC(=O)NC4CC4)c(Cl)c3)c2cc1C(N)=O` [lenvatinib], in the test on HCC patients [1], the “efficacy compared to sorafenib” value is recorded as “non-inferior efficacy”.
In the case of `CNC(=O)c1cc(Oc2ccc(NC(=O)Nc3ccc(Cl)c(C(F)(F)F)c3)cc2)ccn1` [sorafenib], the “median increase in life span” value in the test on HCC patients [2] (HCC patients) is 9.2 months. Besides, in the test with HCC patients [2] (SHARP trial, extended from 7.9), the “median survival of HCC patients” value is 10.7 months. For the same molecule, in the test on 40 HCC PDO lines, the “white light microscopy image of organoids” value is on record as “allow unrestricted organoid growth”.
As to `CC(C)C[C@H](NC(=O)[C@H](Cc1ccccc1)NC(=O)c1cnccn1)B(O)O` [bortezomib], in the test with 40 HCC PDO lines, the “white light microscopy image of organoids” value was “induce cell destruction”.
